How the values were obtained:
Type in all cases: in vivo, human
liver fat content = experiment: Phase 1 12-week NAFLD study (Example 1): liver fat content by MRI-PDFF; details: for absolute reduction in liver fat (MRI-PDFF): week 12, NAFLD; for relative reduction in liver fat (MRI-PDFF) / proportion of patients with at least 30% reduction in liver fat content / proportion of patients with at least 50% reduction in liver fat content / proportion of patients with normalization in liver fat content (equal or below 5%): week 12
Text: Provided herein is disclosure of a Phase 1, multicenter, randomized, double-blind, placebo-controlled study to assess the effects of Pemvidutide (also termed herein as ALT-801), the safety of Pemvidutide and effects on hepatic fat fraction, anthropometric parameters, lipid metabolism, inflammatory markers and fibrosis markers in diabetic and non-diabetic (type 2 diabetes) overweight and obese (BMI 28.0 kg/m^2) subjects with NAFLD. This study was designed to assess changes in hepatic fat fraction by MRI-PDFF (magnetic resonance imaging-proton density fat fraction) in diabetic and non-diabetic overweight and obese subjects with NAFLD after 12 weeks of ALT-801 treatment. The trial was conducted without adjunctive diet and exercise interventions. The study assessed changes in body weight, lipid metabolism, metabolic markers, and inflammatory markers and safety and tolerability of ALT-801 after 12 weeks of treatment. Subjects were stratified for the presence or absence of diabetes at baseline. Fibroscan and cT1 assessments evaluated changes in liver inflammatory and fibrotic activity at the end of 12 weeks of treatment.
Overweight and obese volunteers with BMI ≥28 kg/m^2 were studied because this is the typical population of individuals with NAFLD, and these subjects are able to better tolerate the predicted Pharmacodynamics (PD) effect of weight loss and could even benefit from treatment. A hepatic fat fraction of 10% has been typical for the evaluation of hepatic fat fraction in subjects with NAFLD. In other words, individuals with a liver fat fraction of 10% or greater are typically diagnosed with NAFLD. Diabetic subjects that require insulin, sulfonylureas or DDP-4 inhibitors for control of diabetes were excluded in this study. Exclusions were instituted that might otherwise affect an accurate assessment of the effects of ALT-801 on safety or PD. The BMI upper limit is set to 45 kg/m^2 as subjects over this BMI are no likely to fit into the MRI scanner.
The study, described in this example, was carried out in 94 subjects overweight and obese (body mass index [BMI] ≥28.0 kg/m^2) Type 2 diabetic and non-diabetic subjects with nonalcoholic fatty liver disease (NAFLD) over about 4.5 months, including up to a 35-day screening period, and 85-day treatment period and a 25-day follow-up period, with treatment with ALT-801 (a composition comprising SEQ ID NO.: 1, “study medication”) or placebo administered by subcutaneous (SC) injection once weekly for up to twelve (12) doses.
The safety objective of this study was to assess the safety and tolerability of ALT-801 in 18-65 years old subjects with NAFLD (NAFLD without significant fibrosis, defined as FibroScan® controlled attenuation parameter (CAP) ≥280 dB/m and liver stiffness measurement (LSM)<10 kPa (i.e., indicating the absence of significant fibrosis), magnetic resonance imaging derived proton density fat fraction (MRI-PDFF) ≥10%), hemoglobin Alc (HbAlc) of less than 9.5%, and alanine aminotransferase (ALT) or aspartate aminotransferase (AST) values of ≤[…]. The pharmacodynamic (PD) objectives of this study were to evaluate the effects of ALT-801 on hepatic fat fraction, anthropometric parameters, lipid metabolism, metabolic markers, inflammatory markers, fibrosis markers, and lipotoxicity markers. The pharmacokinetic (PK) objectives of this study were to evaluate the effects of ALT-801 and metformin exposure (drug interactions) on the subjects (e.g., ALT-801 and metformin concentrations in blood over time).
After providing informed consent, subjects underwent a screening period of up to 35 days. Subjects were instructed on how to maintain their normal diets, alcohol consumption and physical activities and not to start any new diets, supplements, or exercise programs at any time while participating in the study. […]

[1] = Phase 1b 24-week NAFLD study (Example 3): body weight loss; details: for weight loss: Week 24
Text: (§1) Provided herein is disclosure of a 12-week extension study of the study provided in Example 1, providing a 24-week a Phase 1b, randomized, double-blind, placebo-controlled study to assess the effects of pemvidutide (also termed herein as ALT-801), the safety of pemvidutide and effects on weight loss, hepatic fat fraction, anthropometric parameters, lipid metabolism, as well as inflammatory, fibrosis and other markers in diabetic and non-diabetic (type 2 diabetes) overweight and obese (BMI≥28.0 kg/m^2) subjects with NAFLD (defined as liver fat content (LFC) by MRI-PDFF ≥10%; absence of significant fibrosis, defined as FibroScan® LSM ≤10 kPa), alanine aminotransferase (ALT) and aspartate aminotransferase (AST) laboratory values of ≤75 IU/L and HbA1c <9.5. Men and women aged 18-65 years were studied. Diabetic subjects were defined as those that have undergone stable dose (≥3 months) metformin or SLGT-2 therapy and no use of insulin, sulfonylureas, DPP-4, GLP-1 treatment; Ninety-four (94) subjects were enrolled in the initial 12-week Phase 1b NAFLD trial and 83 subjects who completed were invited to receive a total of 12 additional weeks of blinded treatment. Of those subjects, 66 consented to rollover, of which 64 were eligible to participate.
(§2) The primary endpoint of this study was a reduction in liver fat content (LFC) by MRI-PDFF at Week 24 compared to Week 0 (zero). Key secondary endpoints include percent (%) weight loss at Week 24 compared to Week 0 (zero), and liver inflammation by alanine aminotransferase (ALT) levels and corrected T1 (cT1) imaging at Week 24 as compared to Week 0 (zero). Adverse events (AEs), including serious and severe AEs, AEs leading to discontinuation, GI tolerability, vital signs, and glycemic control including fasting glucose and HbA1c levels were also measured.

[2] = Phase 1b 24-week NAFLD study (Example 3): safety; details: for serious and severe AE observed: unrelated to study medication
Text: as §1, §2

CC[C@H](C)[C@H](NC(=O)[C@H](Cc1ccccc1)NC(=O)[C@H](CCC(=O)O)NC(=O)[C@@H]1CCCCNC(=O)CC[C@H](NC(=O)[C@H](CC(=O)O)NC(=O)[C@H](CC(C)C)NC(=O)[C@H](Cc2ccc(O)cc2)NC(=O)[C@H](CCCCN)NC(=O)[C@H](CO)NC(=O)[C@H](Cc2ccc(O)cc2)NC(=O)[C@H](CC(=O)O)NC(=O)[C@H](CO)NC(=O)[C@@H](NC(=O)[C@H](Cc2ccccc2)NC(=O)[C@@H](NC(=O)CNC(=O)[C@H](CCC(N)=O)NC(=O)C(C)(C)NC(=O)[C@@H](N)Cc2c[nH]cn2)[C@@H](C)O)[C@H](C)O)C(=O)N[C@@H](CCCCNC(=O)C2O[C@@H](OCCCCCCCCCCCCCCCCCC(=O)O)C(O)C(O)[C@@H]2O)C(=O)N[C@@H](C)C(=O)N[C@@H](C)C(=O)N1)C(=O)N[C@@H](CCC(N)=O)C(=O)N[C@@H](Cc1c[nH]c2ccccc12)C(=O)N[C@@H](CC(C)C)C(=O)N[C@@H](CC(C)C)C(=O)N[C@@H](CCC(N)=O)C(=O)N[C@H](C(N)=O)[C@@H](C)O (some centres unmarked) [ALT-801, Pemvidutide]
absolute reduction in liver fat (MRI-PDFF) (liver fat content; 1.2 mg SC once weekly): 8.9%
relative reduction in liver fat (MRI-PDFF) (liver fat content; 1.2 mg once weekly): 46.6%
proportion of patients with at least 30% reduction in liver fat content (liver fat content; 1.2 mg): 65 % of patients
proportion of patients with at least 50% reduction in liver fat content (liver fat content; 1.2 mg): about 40 % of patients
proportion of patients with normalization in liver fat content (equal or below 5%) (liver fat content; 1.2 mg): 20 % of patients
absolute reduction in liver fat (MRI-PDFF) (liver fat content; 1.8 mg SC once weekly): 14.7%
relative reduction in liver fat (MRI-PDFF) (liver fat content; 1.8 mg once weekly): 68.5%
proportion of patients with at least 30% reduction in liver fat content (liver fat content; 1.8 mg): 94.4 % of patients
proportion of patients with at least 50% reduction in liver fat content (liver fat content; 1.8 mg): 72.2 % of patients
proportion of patients with normalization in liver fat content (equal or below 5%) (liver fat content; 1.8 mg): 55.6 % patients
absolute reduction in liver fat (MRI-PDFF) (liver fat content; 2.4 mg SC once weekly (4-week titration)): 11.3%
relative reduction in liver fat (MRI-PDFF) (liver fat content; 2.4 mg once weekly): 57.1%
proportion of patients with at least 30% reduction in liver fat content (liver fat content; 2.4 mg): 85 % of patients
proportion of patients with at least 50% reduction in liver fat content (liver fat content; 2.4 mg): 70%
proportion of patients with normalization in liver fat content (equal or below 5%) (liver fat content; 2.4 mg): 50.0%
relative reductions in liver fat (study conclusion) (liver fat content; 12 weeks): > 60%
weight loss (in words) ([1]; Week 24 compared to Week 12): continued weight loss
weight loss ([1]; diabetic subjects): 5.3%
weight loss ([1]; non-diabetic subjects): 7.2%
serious and severe AE observed ([2]; 1.2 mg): Salmonella infection
serious and severe AE observed ([2]; 1.8 mg): hypertension >3 weeks post last dose of study medication
number of adverse events leading to treatment discontinuation ([2]; 24 weeks): low across the treatment group
overall safety and tolerability ([2]; 24 weeks): safe and tolerable
severity of gastrointestinal-related adverse events (nausea, vomiting, diarrhea, constipation) ([2]; 24 weeks): mild to moderate
significant ALT elevations ([2]; 24 weeks): No significant ALT elevations were reported
number of serious or severe adverse events ([2]; treatment groups, 24 weeks): low and comparable to the placebo group

Source: patent publication US20240269238A1, “Therapeutic Regimens and Methods for Reducing Body Weight in a Subject with Fatty Liver Disease using a GLP-1R and GCGR Agonist” (Spitfire Pharma LLC, priority 2022, published 2024)
